Values after ≈ are worked out from the molar mass of the structure shown. Bridge positions count the residues as written; N and C are the ends. Peptide text beside a SMILES is read from it.
Columns and labels:
[1] = tested on: Mucor circinelloides NRRL 3631; assay type: cell-based; conditions: potato dextrose broth, 24 h, 37 °C, OD600 <0.1 in at least 3 of 4 wells, dose range 2 to 128 µg/mL; shaded values previously reported ref 17
Outline: (§1)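 Bacteria grown overnight in trypticase soy broth at 37 °C, diluted to ~10^6 CFU/mL in 2X cation-adjusted Mueller–Hinton broth and exposed to dAMPs at 0–128 μg/mL; fungus run in potato dextrose broth. After 24 h at 37 °C, MIC was lowest concentration with ≥3 of 4 wells at OD600 <0.1.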

S. epidermis ATCC 51625 = assay type: cell-based; conditions: cation adjusted Mueller-Hinton broth, ~10^6 CFU/mL, 24 h, 37 °C, OD600 <0.1 in at least 3 of 4 wells, 2-128 μg/mL; shaded values previously reported ref 18
Outline: as §1

E. cloacae 6054 = assay type: cell-based; conditions: cation adjusted Mueller-Hinton broth, ~10^6 CFU/mL, 24 h, 37 °C, OD600 <0.1 in at least 3 of 4 wells, 2-128 μg/mL; shaded values previously reported ref 18
Outline: as §1

[2] = tested on: Aspergillus flavus MYA-3651; assay type: cell-based; conditions: potato dextrose broth, 24 h, 37 °C, OD600 <0.1 in at least 3 of 4 wells, dose range 2 to 128 µg/mL; shaded values previously reported ref 17
Outline: as §1

[3] = tested on: Fusarium solani NRRL 28548; assay type: cell-based; conditions: potato dextrose broth, 24 h, 37 °C, OD600 <0.1 in at least 3 of 4 wells, dose range 2 to 128 µg/mL; shaded values previously reported ref 17
Outline: as §1

Candida albicans Y-6359 = assay type: cell-based; conditions: potato dextrose broth, 24 h, 37 °C, OD600 <0.1 in at least 3 of 4 wells, dose range 2 to 128 µg/mL; shaded values previously reported ref 17
Outline: as §1

[4] = tested on: Candida parapsilosis Y-1761; assay type: cell-based; conditions: potato dextrose broth, 24 h, 37 °C, OD600 <0.1 in at least 3 of 4 wells, dose range 2 to 128 µg/mL; shaded values previously reported ref 17
Outline: as §1

Candida krusei Y-27803 = assay type: cell-based; conditions: potato dextrose broth, 24 h, 37 °C, OD600 <0.1 in at least 3 of 4 wells, dose range 2 to 128 µg/mL; shaded values previously reported ref 17
Outline: as §1

[5] = tested on: Absidia corymbifera NRRL 6251; assay type: cell-based; conditions: potato dextrose broth, 24 h, 37 °C, OD600 <0.1 in at least 3 of 4 wells, dose range 2 to 128 µg/mL; shaded values previously reported ref 17
Outline: as §1

[6] = tested on: Aspergillus fumigatus 9648; assay type: cell-based; conditions: potato dextrose broth, 24 h, 37 °C, OD600 <0.1 in at least 3 of 4 wells, dose range 2 to 128 µg/mL; shaded values previously reported ref 17
Outline: as §1

[7] = tested on: Aspergillus flavus MYA-1004; assay type: cell-based; conditions: potato dextrose broth, 24 h, 37 °C, OD600 <0.1 in at least 3 of 4 wells, dose range 2 to 128 µg/mL; shaded values previously reported ref 17
Outline: as §1

[8] = tested on: Aspergillus fumigatus 9651; assay type: cell-based; conditions: potato dextrose broth, 24 h, 37 °C, OD600 <0.1 in at least 3 of 4 wells, dose range 2 to 128 µg/mL; shaded values previously reported ref 17
Outline: as §1

[9] = tested on: Candida parapsilosis Y-1763; assay type: cell-based; conditions: potato dextrose broth, 24 h, 37 °C, OD600 <0.1 in at least 3 of 4 wells, dose range 2 to 128 µg/mL; shaded values previously reported ref 17
Outline: as §1

E. cloacae 6053 = assay type: cell-based; conditions: cation adjusted Mueller-Hinton broth, ~10^6 CFU/mL, 24 h, 37 °C, OD600 <0.1 in at least 3 of 4 wells, 2-128 μg/mL; shaded values previously reported ref 18
Outline: as §1

Candida krusei Y-27825 = assay type: cell-based; conditions: potato dextrose broth, 24 h, 37 °C, OD600 <0.1 in at least 3 of 4 wells, dose range 2 to 128 µg/mL; shaded values previously reported ref 17
Outline: as §1

Candida albicans Y-326 = assay type: cell-based; conditions: potato dextrose broth, 24 h, 37 °C, OD600 <0.1 in at least 3 of 4 wells, dose range 2 to 128 µg/mL; shaded values previously reported ref 17
Outline: as §1

L929 fibroblast cells = assay: Bioluminescent mammalian cytotoxicity assay; assay type: cell-based, murine; conditions: L929 fibroblasts, up to 64 μg/mL, 8 h of exposure, bioluminescence
Protocol: Real-time killing of bacterial cells, P. aeruginosa or S. aureus, and mammalian cytotoxicity to assess dAMP off-target toxicity was evaluated using bioluminescent cells. The L929 fibroblast cells (ATCC, Manassas, VA, USA) were made bioluminescent by transfection with a luciferase gene. Cells (1 × 10^4 cells, 100 μL) were plated in 96-well black-walled plates and the candidate dAMPs were 2-fold serially diluted from specified concentrations in growth medium supplemented with 150 μg/mL D-luciferin. Each concentration was performed in triplicate, with the final volume being 200 μL. Imaging was performed at select times after the addition of the dAMP, and compared to concurrently run vehicle-control, using an IVIS Lumina imaging system (Caliper Life Sciences, Inc., Hopkinton, MA, USA). For imaging, the 96-well plate was positioned on the stage (12.5-cm field of view), with an open emission filter, binning of 4, and f-stop 1 and a 1-min exposure time. Monitoring bioluminescence allows assessment of the kinetics of cellular viability as there is a tight correlation between the bioluminescent signal and cell viability. […]
Figure 2 RP504, RP556 and RP557 induce limited mammalian cell toxicity. […] Cells were plated at 1×10^4 cells/well, allowed to adhere overnight and the specific dAMP added, and cytotoxicity evaluated through 8 h. […]

P. aeruginosa ATCC 19660 = assay type: cell-based, Pseudomonas aeruginosa; conditions: cation adjusted Mueller-Hinton broth, ~10^6 CFU/mL, 24 h, 37 °C, OD600 <0.1 in at least 3 of 4 wells, 2-128 μg/mL; shaded values previously reported ref 18
Outline: as §1

P. aeruginosa ATCC 27853 = assay type: cell-based, Pseudomonas aeruginosa; conditions: cation adjusted Mueller-Hinton broth, ~10^6 CFU/mL, 24 h, 37 °C, OD600 <0.1 in at least 3 of 4 wells, 2-128 μg/mL; shaded values previously reported ref 18
Outline: as §1

P. aeruginosa 6186 = assay type: cell-based, Pseudomonas aeruginosa; conditions: cation adjusted Mueller-Hinton broth, ~10^6 CFU/mL, 24 h, 37 °C, OD600 <0.1 in at least 3 of 4 wells, 2-128 μg/mL; shaded values previously reported ref 18
Outline: as §1

[10] = tested on: vulvovaginal candidiasis infection; conditions: cited from earlier work
Description: The dAMPs RP504, RP554 and RP557 were thus tested for their ability to treat a rodent vulvovaginal candidiasis infection. […] A daily dose with a 2% concentration lowered the CFU/sample by more than 4 logs compared to the con ...

## CC[C@H](C)[C@@H]1NC(=O)CNC(=O)[C@H](CCCCN)NC(=O)[C@H](Cc2ccc(O)cc2)NC(=O)[C@@H]2CSSC[C@H](NC1=O)C(=O)N[C@@H](Cc1ccccc1)C(=O)N[C@@H](CCCCN)C(=O)N[C@@H](CCCCN)C(=O)N[C@H](C(=O)N[C@@H](CCCCN)C(N)=O)CSSC[C@H](NC(=O)[C@H](Cc1ccccc1)NC(=O)[C@@H](N)CCCNC(=N)N)C(=O)N[C@@H](Cc1c[nH]c3ccccc13)C(=O)N[C@@H](CCCCN)C(=O)N[C@@H](C(C)C)C(=O)N2 [RP557] (H-RFCWKVCYKGICFKKCK-NH2; disulfide 3-16, 7-12)
[1]
  MIC against Mucor circinelloides NRRL 3631: 64 µg/mL (≈ 30 µM)
S. epidermis ATCC 51625
  MIC against S. epidermis ATCC 51625: 8 µg/mL (≈ 3.75 µM)
E. cloacae 6054
  MIC against E. cloacae 6054: 8 µg/mL (≈ 3.75 µM)
[2]
  MIC against Aspergillus flavus MYA-3651: 64 µg/mL (≈ 30 µM)
[3]
  MIC against Fusarium solani NRRL 28548: 2 µg/mL (≈ 0.936 µM)
Candida albicans Y-6359
  MIC against Candida albicans Y-6359: 4 µg/mL (≈ 1.87 µM)
[4]
  MIC against Candida parapsilosis Y-1761: 16 µg/mL (≈ 7.49 µM)
Candida krusei Y-27803
  MIC against Candida krusei Y-27803: 16 µg/mL (≈ 7.49 µM)
[5]
  MIC against Absidia corymbifera NRRL 6251: 2 µg/mL (≈ 0.936 µM)
[6]
  MIC against Aspergillus fumigatus 9648: 64 µg/mL (≈ 30 µM)
[7]
  MIC against Aspergillus flavus MYA-1004: 64 µg/mL (≈ 30 µM)
[8]
  MIC against Aspergillus fumigatus 9651: 64 µg/mL (≈ 30 µM)
[9]
  MIC against Candida parapsilosis Y-1763: 2 µg/mL (≈ 0.936 µM)
E. cloacae 6053
  MIC against E. cloacae 6053: 8 µg/mL (≈ 3.75 µM)
Candida krusei Y-27825
  MIC against Candida krusei Y-27825: 16 µg/mL (≈ 7.49 µM)
Candida albicans Y-326
  MIC against Candida albicans Y-326: 16 µg/mL (≈ 7.49 µM)
L929 fibroblast cells
  mammalian cell toxicity (in words): Limited toxicity
P. aeruginosa ATCC 19660
  MIC against P. aeruginosa ATCC 19660: 4 µg/mL (≈ 1.87 µM)
P. aeruginosa ATCC 27853
  MIC against P. aeruginosa ATCC 27853: 4 µg/mL (≈ 1.87 µM)
P. aeruginosa 6186
  MIC against P. aeruginosa 6186: 4 µg/mL (≈ 1.87 µM)
[10]; daily dose with a 2% concentration, dose-response protocol
  lowering of CFU/sample compared to control samples: more than 4 logs
[10]; rodent vulvovaginal candidiasis, after three days of daily treatment
  reduction of CFU/tissue sample: ≥ 2.5 logs

From paper PMC7559897, “Designed Antimicrobial Peptides Against Trauma-Related Cutaneous Invasive Fungal Wound Infections” (Journal of Fungi, 2020)
